Ends that are not written are not given here.
B1: peptide of SEQ ID NO: 1, synthesized, with spacer sequence and biotin (peptide)
peptide: GRRYYI
modifications: also: spacer with Trp and biotin, letters and position not given here
B2: peptide of SEQ ID NO: 21, synthesized, with spacer sequence and biotin (peptide)
peptide: GKFFCH
modifications: also: spacer with Trp and biotin, letters and position not given here
B3: peptide of SEQ ID NO: 28, synthesized, with spacer sequence and biotin (peptide)
peptide: VMMQCP
modifications: also: spacer with Trp and biotin, letters and position not given here

Each molecule was assayed on norovirus VLPs (GII.4, GII.3, GII.17) (assay: In vitro selection by cDNA display against VLPs with appearance frequency analysis of sequences). Settings: count among peptide aptamer sequences obtained after in vitro selection cycles (7 cycles GII.4, 5 cycles GII.3 and GII.17).
Experimental: The constructed cDNA display and VLPs were incubated in 100 μL of a dialysis selection buffer (20 mM HEPES (pH 7.4), 150 mM NaCl, and 0.05% s Tween 20) at the concentrations shown in Table 9 below at 25° C. for 30 minutes. Subsequently, the resultant was diluted to 1 mL with the dialysis selection buffer, and was put in Float-A-Lyzer G2 Dialysis Device CE, 1000kD MWCO (manufactured by Spectrum Laboratories, Inc.) and was dialyzed with 1 L of the dialysis selection buffer as the external solution at 25° C. During the dialysis, the external solution was replaced with new one 3 times every 2 hours, and the dialysis was performed overnight (for 8 hours) after the 4th replacement. The dialysis product was concentrated with Amicon Ultra 100K (manufactured by Merck Millipore S.A.S.) at 14,000×g for 5 minutes.
To an immunoplate (C-BOTTOM, CLEAR, MICROLON (registered trademark), HIGH BINDING, manufactured by Greiner Bio-One), 100 μL of 3 μg/mL GII.3 or GII.17 VLP solution was added and immobilization was performed at 4° C. overnight. Subsequently, the solution was discarded, and 200 μL of a blocking agent (EMD Millipore™ Blok™ NSB Blocking agents, Thermo Fisher Scientific) was added, followed by gently stirring at room temperature for 2 hours for blocking. On this occasion, wells not immobilizing the VLP were also subjected to similar blocking to be used in preselection.
The solution was discarded from the wells, the wells were washed with 200 μL of a wash buffer (10 mM Hepes (pH 7.4), 150 mM NaCl, and 0.05% Tween 20) three times, and 100 μL of cDNA display (constructed from 1.5 pmol of mRNA-linker) was then put in the wells not immobilizing the VLP, followed by gently stirring at room temperature for 30 minutes to perform preselection. Subsequently, the supernatant containing cDNA display that had not bound to the blocking agent was put in the wells immobilizing the VLP, followed by gently stirring at room temperature for 30 minutes to be bound to the VLP. The supernatant was discarded, washing with 100 μL of the wash buffer was performed four times, and 100 μL of a 5′ SDS solution was then added, followed by incubation at 50° C. for 15 minutes to elute the bound cDNA display.
Subsequently, the VLP-cDNA display complex obtained above was diluted to 100 μL with a dialysis selection buffer, and 10 μL of a coprecipitating agent (Quick-Precip Plus Solution, manufactured by EdgeBio) and 220 μL of 100% ethanol were added, followed by centrifugation at 20,000×g for 5 minutes. Subsequently, the supernatant was discarded, and 1 mL of 70, ethanol was added for rinsing. […] The PCR program was (a) 98° C. for 2 minutes, (b) 95° C. for 20 seconds, (c) 69° C. for 20 seconds, (d) 72° C. for 20 seconds (steps (b) to (d) were performed 25 cycles), and (e) 72° C. for 1 minute.
After the in vitro selection cycle (7 cycles for GII.4 and 5 cycles for GII.3 and GII.17 based on the libraries of 7 cycles obtained by GII.4 dialysis), a sequence library was prepared by the following method, and the sequence information was analyzed. The preparation of the sequence library and the sequencing were performed according to the 16S Metagenomic Sequencing Library Preparation protocol (manufactured by Illumina, Inc.).
The Fastq file of the obtained sequence was converted to a Fasta file, all of the obtained sequences were simultaneously translated from the first base of the start codon (ATG) at position 115 to the third base of the cysteine codon (TGC) at position 156 of the library sequence (SEQ ID NO: 279) using software MEGA.

Molecule | Appearance Frequency
95 (VGHVNW; Designed peptide) [compound 95] | 8
247 (SEHNRY; Designed peptide) [compound 247] | 6
6 (FLDTLG; Designed peptide) [compound 6] | 17
36 (VNGVSH; Designed peptide) [compound 36] | 11
111 (GGGVTT; Designed peptide) [compound 111] | 7
121 (ILISSC; Designed peptide) [compound 121] | 7
96 (VGRFPQ; Designed peptide) [compound 96] | 8
23 (LKASIR; Designed peptide) [compound 23] | 12
209 (LNDMSF; Designed peptide) [compound 209] | 6
221 (NRVKPR; Designed peptide) [compound 221] | 6
123 (KRGGMV; Designed peptide) [compound 123] | 7
91 (SSLALH; Designed peptide) [compound 91] | 8
89 (SRSICS; Designed peptide) [compound 89] | 8
52 (VRYPEI; Designed peptide) [compound 52] | 10
192 (HLGFHT; Designed peptide) [compound 192] | 6
264 (WTMSPA; Designed peptide) [compound 264] | 6
180 (GFGQWI; Designed peptide) [compound 180] | 6
74 (FPYARN; Designed peptide) [compound 74] | 8
159 (VYFIPD; Designed peptide) [compound 159] | 7
263 (VSDPVV; Designed peptide) [compound 263] | 6
224 (PDRFCA; Designed peptide) [compound 224] | 6

Molecule | Appearance Frequency
59 (MAWIGS; Designed peptide) [compound 59] | 9
136 (PVLHLH; Designed peptide) [compound 136] | 7
112 (GHFDAR; Designed peptide) [compound 112] | 7
32 (IMSSIG; Designed peptide) [compound 32] | 11
268 (YRSNHG; Designed peptide) [compound 268] | 6
137 (QDRVTS; Designed peptide) [compound 137] | 7
189 (HHNAPI; Designed peptide) [compound 189] | 6
1 (GRRYYI; Designed peptide) [compound 1] | 23
260 (VMSPCN; Designed peptide) [compound 260] | 6
108 (FWHARL; Designed peptide) [compound 108] | 7
27 (VHYRQT; Designed peptide) [compound 27] | 12
67 (SKHLAG; Designed peptide) [compound 67] | 9
237 (RKCIDR; Designed peptide) [compound 237] | 6
135 (NRHLDP; Designed peptide) [compound 135] | 7
92 (TGHIVW; Designed peptide) [compound 92] | 8
234 (RHGQFF; Designed peptide) [compound 234] | 6
62 (RALAKR; Designed peptide) [compound 62] | 9
181 (GKVTFD; Designed peptide) [compound 181] | 6
231 (RGGRTL; Designed peptide) [compound 231] | 6
229 (QVIQRL; Designed peptide) [compound 229] | 6
254 (STEFAR; Designed peptide) [compound 254] | 6

Molecule | Appearance Frequency
3 (GHRLHS; Designed peptide) [compound 3] | 21
48 (VDSTSV; Designed peptide) [compound 48] | 10
145 (RRRTFH; Designed peptide) [compound 145] | 7
103 (AHLHCD; Designed peptide) [compound 103] | 7
58 (KFSHRK; Designed peptide) [compound 58] | 9
49 (VETDGH; Designed peptide) [compound 49] | 10
54 (FDHFYS; Designed peptide) [compound 54] | 9
226 (QCELKD; Designed peptide) [compound 226] | 6
66 (SGYYRV; Designed peptide) [compound 66] | 9
244 (RTVPSS; Designed peptide) [compound 244] | 6
132 (NHDVRF; Designed peptide) [compound 132] | 7
191 (HLAHKK; Designed peptide) [compound 191] | 6
129 (MHSSLS; Designed peptide) [compound 129] | 7
266 (YGKQRG; Designed peptide) [compound 266] | 6
155 (VMVGPS; Designed peptide) [compound 155] | 7
20 (DYVFCG; Designed peptide) [compound 20] | 12
198 (HYRARY; Designed peptide) [compound 198] | 6
238 (RLHQCR; Designed peptide) [compound 238] | 6
220 (NPVHIK; Designed peptide) [compound 220] | 6
56 (HRRGPS; Designed peptide) [compound 56] | 9
243 (RTLLVQ; Designed peptide) [compound 243] | 6

The molecules below were run against GII.3 VLP (assay: Calculation of KD value by bio-layer interferometry (BLI method)). Settings: BLItz, biotinylated peptide 100 μM on SA chip; GII.3 VLP 1 and 0.1 mg/mL; calculated from ka and kd.
Assay type: binding, norovirus
Experimental: <Calculation of KD Value by Bio-Layer Interferometry: BLI Method>
The apparatus used was BLItz™ (manufactured by ForteBio). The tip of SA chip (manufactured by ForteBio) was kept in contact with purified water for 1 minute for hydration and was then kept in contact with a 1% BSA aqueous solution for 1 hour for blocking. The SA chip subjected to blocking treatment was set to the measuring unit of the BLItz™ main body, and measurement was performed according to the program shown in Table 14. The peptides of SEQ ID NOs: 1, 21, and 28 were used, and the concentration was adjusted to 100 μM. The concentration of the GII.3 VLP was adjusted to 1 and 0.1 mg/mL. The measurement data were analyzed using the attached software, and the KD value was calculated based on the Ka and Kd values.

Molecule | Kd [µM]
GKFFCH [SEQ ID NO: 21] | 107
VMMQCP [SEQ ID NO: 28] | 218
GRRYYI [SEQ ID NO: 1] | 6.01

Same assay, conditions: BLItz, peptide 100 μM on SA chip; GII.3 VLP 1 and 0.1 mg/mL

Molecule | ka [M⁻¹ s⁻¹] | kd [s⁻¹]
GKFFCH [SEQ ID NO: 21] | 358 | 0.0382
VMMQCP [SEQ ID NO: 28] | 230 | 0.05
GRRYYI [SEQ ID NO: 1] | 9070 | 0.0546

What follows are molecules tested against GII.3 VLP (norovirus GII.3 TCH strain) (assay: BLI (BLItz), biotin peptide on SA chip, GII.3 VLP at 1 and 0.1 mg/mL). Settings: not given.

Molecule | Kd [µM] | koff [s⁻¹] | kon [M⁻¹ s⁻¹]
B1 | 6.01 | 0.0546 | 9070
B2 | 107 | 0.0382 | 358
B3 | 218 | 0.05 | 230
